Columns and labels:
[1] = tested on: type 2 diabetic rats; experiment: In vivo pharmacodynamics study: blood glucose in type 2 diabetic rats; parameters: species or system Sprague-Dawley (SD) rats; settings: T2DM rats, subcutaneous 65 μg/kg
Protocol: SD rats were fed high-fat diets containing 45% fat to induce insulin resistance. After one-month diets, a standard 16 h fast in SD rats was conducted, and a 30 mg/mL STZ solution prepared with 0.1 mol/L citrate-sodium citrate buffer (pH 4.5) was injected intraperitoneally at a dose of 30 mg/kg (avoid light, the injection was completed within 30 min). Then the rats were given sufficient water and fasted. Restored the diet after 2 h. If the fasting blood glucose was higher than 16.67 mmol/L for two consecutive times, and the rats were accompanied by significant polydipsia, polyphagia, polyuria, and weight loss, it is considered to be successfully modeled and subsequent experiments could be carried out. To evaluate therapeutic effects, thirty T2DM rats were randomly divided into five groups, fasted overnight, and labeled respectively. […] Blood samples were collected from the tail tip at 0, 0.5, 1, 2, 3, 4, 6, and 10 h after administration to observe the changes in blood glucose levels, and the blood glucose-time curve was plotted.

[2] = tested on: Raji-B cells; experiment: Cytotoxicity by MTT assay, 4 h incubation; assay type: cell-based, Human; settings: 0.03-1 μM
Protocol: (§1) The cytotoxicity of chitosan-based nanoparticles was measured by MTT assay. Caco-2, HT-29, and Raji-B cells at the logarithmic growth stage were inoculated on 96-well plates at 5 × 10^3 cells per well, respectively. The cells were cultured at 37 °C, 5% CO2 for 48 h, then the culture medium was removed and 150 μL of drug-containing culture medium was added to the final concentrations of 1, 0.5, 0.25, 0.125, 0.06, and 0.03 μM. After incubation for 4 h, 20 μL of MTT solution (5 mg/mL) was added to each well, which was incubated for an additional 4 h. Then, the culture medium was discarded and replaced with 150 μL dimethyl sulfoxide. The plates were placed on the shaker and oscillated for 10 min.
(§2) The absorbance was measured at 570 nm using an enzyme marker (ST360, KHB, Shanghai, China). Cell viability was calculated as a percentage of the absorbance relative to that of the control.

[3] = tested on: Caco-2 cells; experiment: Cytotoxicity by MTT assay, 4 h incubation; assay type: cell-based, Human; settings: 0.03-1 μM
Protocol: as §1, §2

[4] = tested on: HT-29 cells; experiment: Cytotoxicity by MTT assay, 4 h incubation; assay type: cell-based, Human; settings: 0.03-1 μM
Protocol: as §1, §2

Compound | time of minimum blood glucose concentration [1] | change of blood glucose concentration ([1]; 0-10 h) | cytotoxicity to Raji B cells [2] | cytotoxicity to Caco-2 cells [3] | cytotoxicity to HT-29 cells [4]
Insulin | 3 h | decreased significantly within 3 h |  |  | 
CCN(CC)c1ccc2c(-c3ccccc3C(=O)O)c3ccc(=[N+](CC)CC)cc-3oc2c1 [Rhodamine B] |  |  | no cytotoxicity | no cytotoxicity | no cytotoxicity

— paper PMC9183037 (Polymers, 2022)
